Data set [1] concerns Typhlodromus pyri. The data set is described as follows: LR50; higher = less toxic. To be noted: not reported; mortality.
For data set [2], the system named is Aphidius rhopalosiphi. As to the kind of experiment: LR50; higher = less toxic. Particulars: not reported; mortality.
For data set [3], the system named is Oncorhynchus mykiss.
The subject of data set [4] is Rattus norvegicus. To be noted: for LD50: acute, mortality.
In data set [5] the test system is Anas platyrhynchos. To be noted: for LD50: oral, mortality; for NOEL: reproductive.
Data set [6] deals with Apis mellifera. Particulars: acute; duration: 48 hours; oral; unspecified; mortality.
The subject of data set [7] is Tagia sp. Particulars: acute; duration: 14 days; mortality.

The record followed here is EPA's ToxValDB 9.5 (doi:10.2903/j.efsa.2008.150r).

≈ marks a conversion by molar mass, not a printed value.

For the compound `CS(=O)(=O)c1ccc(C(=O)C2C(=O)CCCC2=O)c(Cl)c1` [Sulcotrione], the LR50 in data set [1] and in data set [2] was greater than 450 g/ha throughout. For the same compound, the LC50 in data set [3] (acute, duration: 96 hours, mortality) is 227 µg/mL (≈ 690 µM); in data set [7] it was greater than 1000 mg/kg. For the same compound, the NOEC in data set [3] (chronic/long-term, duration: 28 days, growth) was determined as 3.2 mg/L. For the same compound, the LD50 in data set [4] is greater than 5000 mg/kg-day; in data set [5] (acute, unspecified), greater than 1350 mg/kg-day; in data set [5] (short-term, feed) it was greater than 1260 mg/kg-day; in data set [6], 50 µg/piece. The NOEL in data set [4] (chronic) is 0.5 mg/kg-day; in data set [5] (duration: 6 weeks) it was 17 mg/kg-day; in data set [5] (duration: 20 weeks, body weight), less than 10.9 mg/kg-day. Besides, the LOAEL (in general, the lowest tested level that showed an adverse finding) in data set [4] (chronic, duration: 2 years, organ weight) was 0.04 mg/kg-day. Further, the NOAEL (usually the highest tested level that showed no adverse finding) in data set [4] (reproduction developmental, organ weight) was found to be 0.06 mg/kg-day.

In the case of `CS(=O)(=O)c1ccc(C(=O)O)c(Cl)c1` [Benzoic acid, 2-chloro-4-(methylsulfonyl)-], the LD50 in data set [4] (oral) is greater than 2000 mg/kg-day; in data set [5] (short-term, feed) it was greater than 2010 mg/kg-day. This compound yielded an NOEL in data set [4] (reproduction developmental, M, reproduction) of 969 mg/kg-day.
